Data as given in patent US20230116972A1, “CD38 MODULATORS AND METHODS OF USE THEREOF” (Cytokinetics, Inc., priority 2021, published 2023).
Read-outs that look alike come from different tables or passages of the source.

Assays:
Assay type in all cases: in vitro ADME
[1] = biological target: T1, CYP3A4 (Homo sapiens, UniProt P08684); experiment: direct inhibition of CYP450 in human liver microsomes (midazolam and testosterone probes)
T1 construct: from tissue; host or cells: human liver microsomes (pooled in the time-dependent assay)
Description: (§1) Direct inhibition: […] A Perspective of the Pharmaceutical Research and Manufacturers of America”, Drug Metabolism and Disposition, 37 (7): 1355, 2009). For 3A4, the % activity was measured using both midazolam and testosterone as probes. Each compound at 3, 10, and 50 μM was incubated with HLM, NADPH and CYP isoenzyme specific probe substrates at 37° C. Inhibition of the probe substrate metabolism was quantified using LC/MS/MS. […] Known chemical inhibitors specific for the individual CYP isoenzymes were evaluated in parallel as positive controls and these compounds produced CYP inhibition consistent with published results (Walsky & Obach RS. “Validated assays for human cytochrome P450 activities”. Drug Metab Dispos. 32(6):647-60, 2004). Note that, in Tables 6 and 7, the “Compound No” corresponds to the compound numbers in Table 1.

[2] = biological target: T2, CYP2D6 (Homo sapiens, UniProt P10635); experiment: direct inhibition of CYP450 in human liver microsomes; conditions: for activity at 3 µM / activity at 10 µM / activity at 50 µM: % of non-inhibited control, read-out: CYP2D6 T0 % activity; for IC50: estimated from 3, 10, 50 uM, read-out: CYP2D6 T0 estimated IC50
T2 construct: from tissue; host or cells: human liver microsomes (pooled in the time-dependent assay)
Description: as §1

[3] = biological target: T3, CYP2B6 (Homo sapiens, UniProt P20813); experiment: as above; conditions: for activity at 3 µM / activity at 10 µM / activity at 50 µM: % of non-inhibited control, read-out: CYP2B6 T0 % activity; for IC50: estimated from 3, 10, 50 uM, read-out: CYP2B6 T0 estimated IC50
T3 construct: from tissue; host or cells: human liver microsomes (pooled in the time-dependent assay)
T3 sequence (P20813 1-491): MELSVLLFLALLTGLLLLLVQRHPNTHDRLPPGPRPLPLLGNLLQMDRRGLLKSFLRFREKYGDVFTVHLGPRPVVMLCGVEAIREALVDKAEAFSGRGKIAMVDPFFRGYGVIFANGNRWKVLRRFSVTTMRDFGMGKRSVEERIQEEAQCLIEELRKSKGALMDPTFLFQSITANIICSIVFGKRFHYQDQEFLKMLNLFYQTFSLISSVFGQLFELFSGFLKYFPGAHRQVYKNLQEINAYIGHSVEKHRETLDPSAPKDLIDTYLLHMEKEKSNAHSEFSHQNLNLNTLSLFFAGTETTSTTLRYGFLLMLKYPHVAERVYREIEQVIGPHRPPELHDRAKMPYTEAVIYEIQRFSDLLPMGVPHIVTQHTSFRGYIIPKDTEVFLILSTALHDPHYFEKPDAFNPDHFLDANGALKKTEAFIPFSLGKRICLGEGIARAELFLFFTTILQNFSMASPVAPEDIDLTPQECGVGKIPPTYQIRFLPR
Description: as §1

[4] = biological target: T4, CYP2C19 (Homo sapiens, UniProt P33261); experiment: as above; conditions: for activity at 3 µM / activity at 10 µM / activity at 50 µM: % of non-inhibited control, read-out: CYP2C19 T0 % activity; for IC50: estimated from 3, 10, 50 uM, read-out: CYP2C19 T0 estimated IC50
T4 construct: from tissue; host or cells: human liver microsomes (pooled in the time-dependent assay)
Description: as §1

[5] = biological target: T5, CYP2C9 (Homo sapiens, UniProt P11712); experiment: as above; conditions: for activity at 3 µM / activity at 10 µM / activity at 50 µM: % of non-inhibited control, read-out: CYP2C9 T0 % activity; for IC50: estimated from 3, 10, 50 uM, read-out: CYP2C9 T0 estimated IC50
T5 construct: from tissue; host or cells: human liver microsomes (pooled in the time-dependent assay)
Description: as §1

[6] = biological target: T6, CYP1A2 (Homo sapiens, UniProt P05177); experiment: as above
T6 construct: from tissue; host or cells: human liver microsomes (pooled in the time-dependent assay)
T6 sequence (P05177 1-516): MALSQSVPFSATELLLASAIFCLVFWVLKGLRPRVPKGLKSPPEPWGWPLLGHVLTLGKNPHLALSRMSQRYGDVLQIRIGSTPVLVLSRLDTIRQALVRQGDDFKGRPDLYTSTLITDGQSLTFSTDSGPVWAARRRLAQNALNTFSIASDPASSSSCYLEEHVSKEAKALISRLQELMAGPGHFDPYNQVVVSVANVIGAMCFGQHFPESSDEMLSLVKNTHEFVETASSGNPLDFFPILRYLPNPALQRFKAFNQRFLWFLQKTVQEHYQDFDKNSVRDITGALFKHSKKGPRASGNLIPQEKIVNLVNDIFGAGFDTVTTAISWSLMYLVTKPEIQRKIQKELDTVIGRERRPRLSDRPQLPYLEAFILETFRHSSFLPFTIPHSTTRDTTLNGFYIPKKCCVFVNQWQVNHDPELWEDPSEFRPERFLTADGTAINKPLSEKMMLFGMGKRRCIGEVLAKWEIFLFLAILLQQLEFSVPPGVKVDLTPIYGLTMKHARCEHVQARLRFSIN
Description: as §1

[7] = midazolam probe, read-out: CYP3A4-M T0 % activity
[8] = testosterone probe, read-out: CYP3A4-T T0 % activity
[9] = midazolam probe, read-out: CYP3A4-M T0 estimated IC50
[10] = testosterone probe, read-out: CYP3A4-T T0 estimated IC50

T2 sequence (P10635 whole entry): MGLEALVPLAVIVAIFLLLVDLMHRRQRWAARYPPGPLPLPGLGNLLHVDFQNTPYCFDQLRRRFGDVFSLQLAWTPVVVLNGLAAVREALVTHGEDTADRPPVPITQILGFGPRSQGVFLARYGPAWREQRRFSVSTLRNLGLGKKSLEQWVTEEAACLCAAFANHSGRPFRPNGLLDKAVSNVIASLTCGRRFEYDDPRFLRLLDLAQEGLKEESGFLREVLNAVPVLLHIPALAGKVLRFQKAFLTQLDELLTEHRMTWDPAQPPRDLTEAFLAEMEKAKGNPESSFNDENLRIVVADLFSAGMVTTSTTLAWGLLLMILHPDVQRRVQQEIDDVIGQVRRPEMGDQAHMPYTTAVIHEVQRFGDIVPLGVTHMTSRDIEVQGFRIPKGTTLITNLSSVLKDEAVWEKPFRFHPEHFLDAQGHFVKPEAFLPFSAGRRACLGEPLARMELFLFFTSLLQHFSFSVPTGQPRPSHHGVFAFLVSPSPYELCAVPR
T4 sequence (P33261 whole entry): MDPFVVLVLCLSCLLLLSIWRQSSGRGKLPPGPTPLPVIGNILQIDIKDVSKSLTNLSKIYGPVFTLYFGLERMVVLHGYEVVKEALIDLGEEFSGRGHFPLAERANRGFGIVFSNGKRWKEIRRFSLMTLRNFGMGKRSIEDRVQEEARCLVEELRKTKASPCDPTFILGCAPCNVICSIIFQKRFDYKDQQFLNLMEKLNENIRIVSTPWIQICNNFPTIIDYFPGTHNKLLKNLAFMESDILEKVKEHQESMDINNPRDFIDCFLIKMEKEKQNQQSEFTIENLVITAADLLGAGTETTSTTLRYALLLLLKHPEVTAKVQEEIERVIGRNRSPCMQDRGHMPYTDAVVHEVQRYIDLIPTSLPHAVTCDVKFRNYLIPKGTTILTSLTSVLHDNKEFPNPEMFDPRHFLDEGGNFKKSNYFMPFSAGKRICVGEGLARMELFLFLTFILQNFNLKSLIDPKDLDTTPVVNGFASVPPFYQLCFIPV
T5 sequence (P11712 whole entry): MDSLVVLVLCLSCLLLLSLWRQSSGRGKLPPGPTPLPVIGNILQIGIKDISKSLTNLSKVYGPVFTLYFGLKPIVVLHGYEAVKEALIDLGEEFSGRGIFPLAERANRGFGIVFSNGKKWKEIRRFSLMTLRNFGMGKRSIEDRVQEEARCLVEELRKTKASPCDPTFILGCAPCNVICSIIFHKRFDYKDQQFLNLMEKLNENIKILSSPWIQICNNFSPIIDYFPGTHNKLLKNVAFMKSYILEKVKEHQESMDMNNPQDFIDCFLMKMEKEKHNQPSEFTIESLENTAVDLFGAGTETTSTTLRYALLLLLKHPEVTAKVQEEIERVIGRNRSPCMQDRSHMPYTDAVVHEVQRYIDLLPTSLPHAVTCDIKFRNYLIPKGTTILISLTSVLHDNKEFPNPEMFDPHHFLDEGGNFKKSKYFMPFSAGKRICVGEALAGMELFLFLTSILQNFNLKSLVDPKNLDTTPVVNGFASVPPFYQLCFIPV
T1 sequence (P08684 whole entry): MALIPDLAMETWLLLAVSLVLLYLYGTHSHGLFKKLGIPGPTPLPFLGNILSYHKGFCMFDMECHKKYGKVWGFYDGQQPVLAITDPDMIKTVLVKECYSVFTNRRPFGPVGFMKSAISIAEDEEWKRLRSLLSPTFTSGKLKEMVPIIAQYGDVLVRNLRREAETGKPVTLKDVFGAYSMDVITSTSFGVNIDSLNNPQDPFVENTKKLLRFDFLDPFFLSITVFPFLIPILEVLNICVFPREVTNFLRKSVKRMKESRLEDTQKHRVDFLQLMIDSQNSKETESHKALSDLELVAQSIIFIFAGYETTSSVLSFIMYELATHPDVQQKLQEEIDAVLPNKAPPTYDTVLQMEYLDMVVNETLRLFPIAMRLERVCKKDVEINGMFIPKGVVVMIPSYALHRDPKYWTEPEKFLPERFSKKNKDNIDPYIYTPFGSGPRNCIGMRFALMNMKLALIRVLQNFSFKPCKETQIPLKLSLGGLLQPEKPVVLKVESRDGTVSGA

Row | SMILES | activity at 3 µM [1, 7] [%] | activity at 3 µM [1, 8] [%] | activity at 10 µM [1, 7] [%] | activity at 10 µM [1, 8] [%] | activity at 50 µM [1, 7] [%] | activity at 50 µM [1, 8] [%] | IC50 [1, 9] [µM] | IC50 [1, 10] [µM] | activity at 3 µM [2] [%] | activity at 10 µM [2] [%] | activity at 50 µM [2] [%] | IC50 [2] [µM] | activity at 3 µM [3] [%] | activity at 10 µM [3] [%] | activity at 50 µM [3] [%] | IC50 [3] [µM] | activity at 3 µM [4] [%] | activity at 10 µM [4] [%] | activity at 50 µM [4] [%] | IC50 [4] [µM] | other results
1 | CO[C@H]1CC[C@H](NC(=O)c2nccc(-n3ccnc3)n2)CC1 [Compound 145, 4-(1H-Imidazol-1-yl)-N-((1r,4r)-4-methoxycyclohexyl)pyrimidine-2-carboxamide] | 99 | 96 | 89 | 98 | 75 | 95 | > 50 | > 50 | 93 | 73 | 47 | < 50 | 101 | 98 | 99 | > 50 | 92 | 93 | 89 | > 50 | activity at 3 µM [5]: 97%; activity at 10 µM [5]: 99%; activity at 50 µM [5]: 96%; IC50 [5]: > 50 µM; IC50 [6]: > 50 µM; activity at 3 µM ([6]; human, microsomes): 94%; activity at 10 µM ([6]; human, microsomes): 92%; activity at 50 µM ([6]; human, microsomes): 79%
2 | [2H]c1nc([2H])n(-c2nc(C)cc(C(=O)N[C@H]3CC[C@H](OCCOC)CC3)n2)c1[2H] [Comparator Compound A, reference compound] | 98 | 100 | 99 | 97 | 91 | 103 | > 50 | > 50 | 95 | 82 | 42 | < 50 | 103 | 98 | 57 | > 50 | 77 | 49 | 17 | ~10 | activity at 3 µM [5]: 88%; activity at 10 µM [5]: 64%; activity at 50 µM [5]: 24%; IC50 [5]: < 50 µM; activity at 3 µM ([6]; 3 uM, human liver microsomes, % of non-inhibited control, read-out: CYP1A2 T0 % activity): 98%; activity at 10 µM ([6]; 10 uM, human liver microsomes, % of non-inhibited control, read-out: CYP1A2 T0 % activity): 98%; activity at 50 µM ([6]; 50 uM, human liver microsomes, % of non-inhibited control, read-out: CYP1A2 T0 % activity): 92%; IC50 ([6]; human liver microsomes, estimated from 3, 10, 50 uM, read-out: CYP1A2 T0 estimated IC50): > 50 µM
